For assay [1], the system named is HIV-1 reverse transcriptase. In kind it is cell-based. To be noted: for inhibition of cell growth, then reverse transcription (OD @ 600 nm): Strain A (not carrying dCK and OAT1), 100 μM, 72 hours, FIG. 1; for % Inhibition of HIV Reverse Transcriptase activity in yeast cells: Strain A (no dCK, no transporter), 200 μM, 72 hours incubation.
Assay [2] has as its system HIV-1 reverse transcriptase. It counts as cell-based. To be noted: for inhibition of cell growth, then reverse transcription (OD @ 600 nm): Strain A# (dCK in genome, OAT1 plasmid), 100 μM, 72 hours, FIG. 1; for inhibition of HIV RT enabled by expression of OAT1: transformed yeast cell expressing OAT1.
Assay [3] deals with HIV-1 reverse transcriptase. The following applies: Strain B## (dCK+, OAT1+ in genome), 100 μM, 72 hours, FIG. 2.
Source text: S. cerevisiae strain B (Mat a, URA+, HIS−, LEU+) was transformed, using the standard Lithium Acetate protocol, with a previously linearized by StuI restriction enzyme p426GPDhdCK plasmid that contains the nucleic acid sequences coding for dCK and ura3, and where linearization occurred within the ura3 open reading frame. The new strain (Strain B#) where integration of dCK occurred at the ura3 locus has the following phenotype (Mat a, URA−, HIS−, LEU+, dCK+).
Strain B# was genetically modified by standard methods through transformation with a PCR amplified DNA fragment. This nucleic acid fragment contains the nucleic acid sequence coding for OAT1 transporter flanked by 5′ and 3′ non-coding regions of the leu2 locus. The new modified strain where dCK and OAT1 are integrated in the yeast genome, Strain B## (Mat a, URA−, HIS−, LEU−, dCK+, OAT1+), was transformed with the plasmid pHART21 described in U.S. Pat. No. 5,714,313. HIV-1 RT activity in Strain B## was determined as described in U.S. Pat. No. 5,714,313 after 72 hours incubation in the presence of 100 μM of either AZT, ddC, ddI or d4T.
Assay [4] concerns HIV-1 reverse transcriptase. The following applies: Strain A§§ (NT5C+, CNT2+), 200 μM, 72 hours.
Procedure: HIV RT activity was determined in both strains as described in U.S. Pat. No. 5,714,313 as follows. Both HIV1 RT expressing strains were grown in SD-ura+glucose to saturation. 1 DO of saturated culture (about 10^7 cells) was seeded in 1 ml SGal-ura and grew for 6 hrs. Glucose was then added to stop RT activation. After 12 hours, induced cells were seeded at 0.2 DO/ml in SD-His media and incubated for 72 hours.
Assay [5] deals with HIV-1 reverse transcriptase. To be noted: Strain A#§ (dCK+, CNT2+), 200 μM, 72 hours.
Procedure: HIV RT activity was determined in both strains as described in U.S. Pat. No. 5,714,313 as follows. Both HIV1 RT expressing strains were grown in SD-ura+glucose to saturation. 1 DO of saturated culture (about 10^7 cells) was seeded in 1 ml SGal-ura and grew for 6 hrs. Glucose was then added to stop RT activation. After 12 hours, induced cells were seeded at 0.2 DO/ml in SD-His media and incubated for 72 hours. Incubations were performed at 30° C. with shaking Inhibition of HIV-1 RT activity was determined by measuring the inhibition of growth in the presence 200 μM concentration of ABC (Abacavir) or TFV (Tenofovir) inhibitors, as shown in Table II.
The test system of assay [6] is HIV-1 reverse transcriptase. It counts as cell-based. To be noted: for % Inhibition of HIV Reverse Transcriptase activity in yeast cells: Strain A# (dCK+, CNT3+), 200 μM, 72 hours incubation; for inhibition of HIV RT enabled by expression of CNT3: transformed yeast cell expressing CNT3.

Read-outs that look alike come from different tables or passages of the source.

For the molecule `Nc1ccn([C@H]2CC[C@@H](CO)O2)c(=O)n1` [ddC, Zalcitabine], in assay [1], the “inhibition of cell growth, then reverse transcription (OD @ 600 nm)” value (“inhibition of cell growth … (OD @ 600 nm)” for short) is “can not inhibit cell growth”. Further, in assay [2], the “inhibition of cell growth … (OD @ 600 nm)” value is given as “inhibits cell growth” and the “inhibition of HIV RT enabled by expression of OAT1” value (shortened to “inhibition … of OAT1”) is given as “good inhibition”. The “inhibition of cell growth (% inhibition), then reverse transcription, absorbance at 600 nm” value (shortened to “inhibition of cell growth (% inhibition)”) in assay [3] is “inhibits cell growth”.

With `Nc1nc(NC2CC2)c2ncn([C@H]3C=C[C@@H](CO)C3)c2n1` [ABC, Abacavir], the “% Inhibition of HIV-1 Reverse transcriptase in modified yeast cells” value in assay [4] was 0%; in assay [5] it was 87%.

For `Cc1cn([C@H]2C[C@H](N=[N+]=[N-])[C@@H](CO)O2)c(=O)[nH]c1=O` [AZT, Zidovudine], in assay [1], the “% Inhibition of HIV Reverse Transcriptase activity in yeast cells” value (shortened to “% Inhibition … in yeast cells”) was 0% and the “inhibition of cell growth … (OD @ 600 nm)” value is given as “can not inhibit cell growth”. For the same molecule, in assay [6], the “% Inhibition … in yeast cells” value is listed as 31% and the “inhibition of HIV RT enabled by expression of CNT3” value is given as “good inhibition”. Besides, in assay [2], the “inhibition of cell growth … (OD @ 600 nm)” value was “inhibits cell growth” and the “inhibition … of OAT1” value is “good inhibition”. Further, in assay [3], the “inhibition of cell growth (% inhibition)” value is on record as “inhibits cell growth”.

In the case of `CC(C)OC(=O)OCOP(=O)(CO[C@H](C)Cn1cnc2c(N)ncnc21)OCOC(=O)OC(C)C` [TFV, Tenofovir], the results for the “% Inhibition of HIV-1 Reverse transcriptase in modified yeast cells” value in assay [4] and in assay [5] were 0% and 96%, respectively.

With `Cc1cn([C@H]2C=C[C@@H](CO)O2)c(=O)[nH]c1=O` [d4T, Stavudine], in assay [1], the “% Inhibition … in yeast cells” value turned out to be 0% and the “inhibition of cell growth … (OD @ 600 nm)” value is recorded as “can not inhibit cell growth”. Moreover, in assay [6], the “% Inhibition … in yeast cells” value turned out to be 56% and the “inhibition of HIV RT enabled by expression of CNT3” value is on record as “good inhibition”. For the same molecule, in assay [2], the “inhibition of cell growth … (OD @ 600 nm)” value was “inhibits cell growth” and the “inhibition … of OAT1” value was “good inhibition”. Also, in assay [3], the “inhibition of cell growth (% inhibition)” value was “inhibits cell growth”.

As for `O=c1[nH]cnc2c1ncn2[C@H]1CC[C@@H](CO)O1` [ddI, Didanosine], the “inhibition of cell growth … (OD @ 600 nm)” value in assay [1] was “can not inhibit cell growth”. Besides, in assay [2], the “inhibition of cell growth … (OD @ 600 nm)” value is “inhibits cell growth” and the “inhibition … of OAT1” value is recorded as “good inhibition”. The “inhibition of cell growth (% inhibition)” value in assay [3] is “inhibits cell growth”.

Values taken from US9334524B2, “Methods for improving and managing nucleoside reverse-transcriptase inhibition based treatment” (priority 2011, dated 2016).
